≈ marks a conversion by molar mass, not a printed value.
Tests used:
Type in all cases: functional
Bacillus subtilis = test: Antibacterial activity against Bacillus subtilis ATCC6633 assessed as bacterial growth inhibition after 24 hrs by broth dilution method; conditions: ATCC6633, 24 h
Staphylococcus aureus [1] = test: Antibacterial activity against methicillin-resistant Staphylococcus aureus ATCC523512 assessed as bacterial growth inhibition after 24 hrs by broth dilution method; conditions: ATCC523512, 24 h
Staphylococcus aureus [2] = test: Antibacterial activity against Staphylococcus aureus ATCC25923 assessed as bacterial growth inhibition after 24 hrs by broth dilution method; conditions: ATCC25923, 24 h
Staphylococcus aureus [3] = test: Antibacterial activity against methicillin-resistant Staphylococcus aureus ATCC62202 assessed as bacterial growth inhibition after 24 hrs by broth dilution method; conditions: ATCC62202, 24 h
Staphylococcus aureus [4] = test: Antibacterial activity against methicillin-resistant Staphylococcus aureus ATCC51033 assessed as bacterial growth inhibition after 24 hrs by broth dilution method; conditions: ATCC51033, 24 h
Staphylococcus aureus [5] = test: Antibacterial activity against methicillin-resistant Staphylococcus aureus ATCC513045 assessed as bacterial growth inhibition after 24 hrs by broth dilution method; conditions: ATCC513045, 24 h
Escherichia coli = test: Antibacterial activity against Escherichia coli ATCC25922 assessed as bacterial growth inhibition after 24 hrs by broth dilution method; conditions: ATCC25922, 24 h
Staphylococcus aureus [6] = test: Antibacterial activity against methicillin-resistant Staphylococcus aureus ATCC43300 assessed as bacterial growth inhibition after 24 hrs by broth dilution method; conditions: ATCC43300, 24 h
Staphylococcus aureus [7] = test: Antibacterial activity against methicillin-resistant Staphylococcus aureus ATCC510019 assessed as bacterial growth inhibition after 24 hrs by broth dilution method; conditions: ATCC510019, 24 h
Pseudomonas aeruginosa = test: Antibacterial activity against Pseudomonas aeruginosa ATCC2785 assessed as bacterial growth inhibition after 24 hrs by broth dilution method; conditions: ATCC2785, 24 h
Staphylococcus aureus [8] = test: Antibacterial activity against methicillin-resistant Staphylococcus aureus ATCC515992 assessed as bacterial growth inhibition after 24 hrs by broth dilution method; conditions: ATCC515992, 24 h
Staphylococcus aureus [9] = test: Antibacterial activity against methicillin-resistant Staphylococcus aureus ATCC52056 assessed as bacterial growth inhibition after 24 hrs by broth dilution method; conditions: ATCC52056, 24 h
Proteus vulgaris = test: Antibacterial activity against Proteus vulgaris ATCC49101 assessed as bacterial growth inhibition after 24 hrs by broth dilution method; conditions: ATCC49101, 24 h
Staphylococcus aureus [10] = test: Antibacterial activity against methicillin-resistant Staphylococcus aureus ATCC425055 assessed as bacterial growth inhibition after 24 hrs by broth dilution method; conditions: ATCC425055, 24 h
[11] = system: Staphylococcus epidermidis; test: Antibacterial activity against Staphylococcus epidermidis ATCC12228 assessed as bacterial growth inhibition after 24 hrs by broth dilution method; conditions: ATCC12228, 24 h

SMILES | MIC (Bacillus subtilis) [µg/mL] | MIC (Staphylococcus aureus [1]) [µg/mL] | MIC (Staphylococcus aureus [2]) [µg/mL] | MIC (Staphylococcus aureus [3]) [µg/mL] | MIC (Staphylococcus aureus [4]) [µg/mL] | MIC (Staphylococcus aureus [5]) [µg/mL] | MIC (Escherichia coli) [µg/mL] | MIC (Staphylococcus aureus [6]) [µg/mL] | MIC (Staphylococcus aureus [7]) [µg/mL] | MIC (Pseudomonas aeruginosa) [µg/mL] | MIC (Staphylococcus aureus [8]) [µg/mL] | MIC (Staphylococcus aureus [9]) [µg/mL] | MIC (Proteus vulgaris) [µg/mL] | MIC (Staphylococcus aureus [10]) [µg/mL] | MIC [11] [µg/mL]
COC(=O)c1c(O)cc(OC)cc1/C=C/c1ccccc1F | 128 (≈ 423 µM) | > 128 | > 128 | > 128 | > 128 | > 128 | > 128 | > 128 | > 128 | 128 (≈ 423 µM) | > 128 | > 128 | > 128 | > 128 | 128 (≈ 423 µM)
COC(=O)c1c(O)cc(OC)cc1/C=C/c1cccc(F)c1 | 128 (≈ 423 µM) | > 128 | > 128 | > 128 | > 128 | > 128 | 128 (≈ 423 µM) | > 128 | 128 (≈ 423 µM) | 128 (≈ 423 µM) | > 128 | > 128 | > 128 | > 128 | 128 (≈ 423 µM)
COC(=O)c1c(O)cc(OC)cc1/C=C/c1ccc(F)cc1 | > 128 | > 128 | > 128 | > 128 | > 128 | > 128 | > 128 | > 128 | > 128 | > 128 | 128 (≈ 423 µM) | > 128 | > 128 | > 128 | > 128
COC(=O)c1c(O)cc(OC)cc1/C=C/c1ccc(Cl)cc1 | 128 (≈ 402 µM) | > 128 | > 128 | 128 (≈ 402 µM) | > 128 | > 128 | > 128 | > 128 | > 128 | > 128 | > 128 | > 128 | > 128 | > 128 | > 128
COC(=O)c1c(O)cc(OC)cc1/C=C/c1ccc(OC)cc1 | > 128 | > 128 | > 128 | > 128 | > 128 | > 128 | > 128 | > 128 | 128 (≈ 407 µM) | 128 (≈ 407 µM) | > 128 | > 128 | > 128 | > 128 | > 128
COC(=O)c1c(O)cc(OC)cc1/C=C/c1ccc(C)cc1 | > 128 | > 128 | > 128 | > 128 | 128 (≈ 429 µM) | > 128 | > 128 | > 128 | > 128 | > 128 | > 128 | > 128 | > 128 | 128 (≈ 429 µM) | > 128
COC(=O)c1c(O)cc(OC)cc1/C=C/c1cc(OC)c(OC)c(OC)c1 | > 128 | > 128 | > 128 | > 128 | 128 (≈ 342 µM) | > 128 | > 128 | > 128 | > 128 | > 128 | 64 (≈ 171 µM) | > 128 | > 128 | > 128 | > 128
COC(=O)c1c(O)cc(OC)cc1/C=C/c1cccc(C#N)c1 | > 128 | > 128 | > 128 | > 128 | 128 (≈ 414 µM) | > 128 | > 128 | > 128 | > 128 | > 128 | 64 (≈ 207 µM) | > 128 | > 128 | > 128 | > 128
COC(=O)c1c(O)cc(OC)cc1/C=C/c1ccc(C(F)(F)F)cc1 | > 128 | > 128 | > 128 | > 128 | > 128 | 128 (≈ 363 µM) | > 128 | > 128 | > 128 | > 128 | > 128 | > 128 | > 128 | > 128 | 128 (≈ 363 µM)
COC(=O)c1c(O)cc(OC)cc1/C=C/c1ccc(F)cc1F | > 128 | > 128 | > 128 | > 128 | 128 (≈ 400 µM) | > 128 | > 128 | 128 (≈ 400 µM) | > 128 | > 128 | > 128 | > 128 | > 128 | 128 (≈ 400 µM) | > 128
COc1cc(O)c(C(=O)O)c(/C=C/c2ccccc2)c1 | 64 (≈ 237 µM) | > 128 | > 128 | 128 (≈ 474 µM) | > 128 | > 128 | > 128 | > 128 | > 128 | > 128 | > 128 | 128 (≈ 474 µM) | > 128 | > 128 | > 128
CCn1cc(C(=O)O)c(=O)c2cc(F)c(N3CCNCC3)cc21 [NORFLOXACIN] | 2 (≈ 6.26 µM) | 8 (≈ 25.1 µM) | 2 (≈ 6.26 µM) | 8 (≈ 25.1 µM) | 4 (≈ 12.5 µM) | 4 (≈ 12.5 µM) | 32 (≈ 100 µM) | 4 (≈ 12.5 µM) | 8 (≈ 25.1 µM) | 16 (≈ 50.1 µM) | 16 (≈ 50.1 µM) | 8 (≈ 25.1 µM) | 16 (≈ 50.1 µM) | 4 (≈ 12.5 µM) | 2 (≈ 6.26 µM)
CC1(C)S[C@@H]2[C@H](NC(=O)Cc3ccccc3)C(=O)N2[C@H]1C(=O)O [PENICILLIN G] | 2 (≈ 5.98 µM) | 32 (≈ 95.7 µM) | 2 (≈ 5.98 µM) | 32 (≈ 95.7 µM) | 32 (≈ 95.7 µM) | 32 (≈ 95.7 µM) | 64 (≈ 191 µM) | 32 (≈ 95.7 µM) | 32 (≈ 95.7 µM) | 16 (≈ 47.8 µM) | 32 (≈ 95.7 µM) | 64 (≈ 191 µM) | > 16 | 32 (≈ 95.7 µM) | 2 (≈ 5.98 µM)
